Experimental data: patent US20210363254A1, “PHARMACEUTICAL COMBINATIONS” (Novartis AG, priority 2018, published 2021)
Read-outs that look alike come from different tables or passages of the source.

[1] = RDE (Regimen 1B 120 mg) (n = 9)

COc1ncc(-c2nc3c(n2C(C)C)[C@H](c2ccc(Cl)cc2)N(c2cc(Cl)cn(C)c2=O)C3=O)c(OC)n1 [HDM201, (S)-5-(5-Chloro-1-methyl-2-oxo-1,2-dihydro-pyridin-3-yl)-6-(4-chloro-phenyl)-2-(2,4-dimethoxy-pyrimidin-5-yl)-1-isopropyl-5,6-dihydro-1H-pyrrolo[3,4-d]imidazol-4-one]
Nausea, Grade 3/4 (1B all subjects, N=20): 1 n (%) | Neuralgia, All Grades (1B all subjects, N=20): 1 n (%) | Neuralgia, Grade 3/4 (1B all subjects, N=20): 0 n (%) | Neutropenia, All Grades (1B all subjects, N=20): 6 n (%) | Neutropenia, Grade 3/4 (1B all subjects, N=20): 5 n (%) | Neutrophil Count Decreased, All Grades (1B all subjects, N=20): 3 n (%) | Neutrophil Count Decreased, Grade 3/4 (1B all subjects, N=20): 2 n (%) | Oedema, All Grades (1B all subjects, N=20): 1 n (%) | Oedema, Grade 3/4 (1B all subjects, N=20): 0 n (%) | Oral Candidiasis, All Grades (1B all subjects, N=20): 1 n (%) | Oral Candidiasis, Grade 3/4 (1B all subjects, N=20): 0 n (%) | Platelet Count Decreased, All Grades (1B all subjects, N=20): 4 n (%) | Platelet Count Decreased, Grade 3/4 (1B all subjects, N=20): 0 n (%) | Pruritus, All Grades (1B all subjects, N=20): 1 n (%) | Pruritus, Grade 3/4 (1B all subjects, N=20): 0 n (%) | Thrombocytopenia, All Grades (1B all subjects, N=20): 5 n (%) | Thrombocytopenia, Grade 3/4 (1B all subjects, N=20): 2 n (%) | Total, All Grades (1B all subjects, N=20): 19 n (%) | Total, Grade 3/4 (1B all subjects, N=20): 9 n (%) | Vomiting, All Grades (1B all subjects, N=20): 5 n (%) | Vomiting, Grade 3/4 (1B all subjects, N=20): 0 n (%) | Weight Decreased, All Grades (1B all subjects, N=20): 1 n (%) | Weight Decreased, Grade 3/4 (1B all subjects, N=20): 0 n (%) | White Blood Cell Count Decreased, All Grades (1B all subjects, N=20): 3 n (%) | White Blood Cell Count Decreased, Grade 3/4 (1B all subjects, N=20): 0 n (%) | Anemia, All Grades (All Regimens (N = 85)): 25 (29) n (%) | Anemia, Grade 3/4 (All Regimens (N = 85)): 10 n (%) | Decreased Appetite, All Grades (All Regimens (N = 85)): 19 (22) n (%) | Decreased Appetite, Grade 3/4 (All Regimens (N = 85)): 2 n (%) | Diarrhea, All Grades (All Regimens (N = 85)): 13 (15) n (%) | Diarrhea, Grade 3/4 (All Regimens (N = 85)): 0 n (%) | Fatigue, All Grades (All Regimens (N = 85)): 19 (22) n (%) | Fatigue, Grade 3/4 (All Regimens (N = 85)): 2 n (%) | Leukopenia, All Grades (All Regimens (N = 85)): 12 (14) n (%) | Leukopenia, Grade 3/4 (All Regimens (N = 85)): 8 n (%) | Nausea, All Grades (All Regimens (N = 85)): 44 (52) n (%) | Nausea, Grade 3/4 (All Regimens (N = 85)): 1 n (%) | Neutropenia, All Grades (All Regimens (N = 85)): 18 (21) n (%) | Neutropenia, Grade 3/4 (All Regimens (N = 85)): 15 n (%) | Platelet Count Decreased, All Grades (All Regimens (N = 85)): 15 (18) n (%) | Platelet Count Decreased, Grade 3/4 (All Regimens (N = 85)): 7 n (%) | Thrombocytopenia, All Grades (All Regimens (N = 85)): 27 (32) n (%) | Thrombocytopenia, Grade 3/4 (All Regimens (N = 85)): 14 n (%) | Vomiting, All Grades (All Regimens (N = 85)): 19 (22) n (%) | Vomiting, Grade 3/4 (All Regimens (N = 85)): 0 n (%) | White blood cell count decrease, All Grades (All Regimens (N = 85)): 11 (13) n (%) | White blood cell count decrease, Grade 3/4 (All Regimens (N = 85)): 3 n (%) | Anemia, All Grades [1]: 2 (22.2) n(%) | Anemia, G3/4 [1]: 0 n(%) | Leukopenia/white blood cell count decreased, All Grades [1]: 3 (33.3) n(%) | Leukopenia/white blood cell count decreased, G3/4 [1]: 0 n(%) | Neutropenia/neutrophil count decreased, All Grades [1]: 2 (22.2) n(%) | Neutropenia/neutrophil count decreased, G3/4 [1]: 2 (22.2) n(%) | Thrombocytopenia/platelet count decreased, All Grades [1]: 4 (44.4) n(%) | Thrombocytopenia/platelet count decreased, G3/4 [1]: 0 n(%) | Anemia, All Grades (Regimen 1A (n = 26)): 10 (38.5) n(%) | Anemia, G3/4 (Regimen 1A (n = 26)): 3 (11.5) n(%) | Leukopenia/white blood cell count decreased, All Grades (Regimen 1A (n = 26)): 9 (34.6) n(%) | Leukopenia/white blood cell count decreased, G3/4 (Regimen 1A (n = 26)): 5 (19.2) n(%) | Neutropenia/neutrophil count decreased, All Grades (Regimen 1A (n = 26)): 9 (34.6) n(%) | Neutropenia/neutrophil count decreased, G3/4 (Regimen 1A (n = 26)): 8 (30.7) n(%) | Thrombocytopenia/platelet count decreased, All Grades (Regimen 1A (n = 26)): 12 (46.2) n(%) | Thrombocytopenia/platelet count decreased, G3/4 (Regimen 1A (n = 26)): 8 (30.8) n(%) | Anemia, All Grades (Regimen 1B (n = 20)): 5 (25.0) n(%) | Anemia, G3/4 (Regimen 1B (n = 20)): 0 n(%) | Leukopenia/white blood cell count decreased, All Grades (Regimen 1B (n = 20)): 5 (25.0) n(%) | Leukopenia/white blood cell count decreased, G3/4 (Regimen 1B (n = 20)): 1 (5.0) n(%) | Neutropenia/neutrophil count decreased, All Grades (Regimen 1B (n = 20)): 8 (40.0) n(%) | Neutropenia/neutrophil count decreased, G3/4 (Regimen 1B (n = 20)): 6 (30.0) n(%) | Thrombocytopenia/platelet count decreased, All Grades (Regimen 1B (n = 20)): 9 (45.0) n(%) | Thrombocytopenia/platelet count decreased, G3/4 (Regimen 1B (n = 20)): 2 (10.0) n(%) | Anemia, All Grades (Regimen 2A (n = 20)): 6 (30.0) n(%) | Anemia, G3/4 (Regimen 2A (n = 20)): 4 (20.0) n(%) | Leukopenia/white blood cell count decreased, All Grades (Regimen 2A (n = 20)): 4 (20.0) n(%) | Leukopenia/white blood cell count decreased, G3/4 (Regimen 2A (n = 20)): 3 (15.0) n(%) | Neutropenia/neutrophil count decreased, All Grades (Regimen 2A (n = 20)): 5 (25.0) n(%) | Neutropenia/neutrophil count decreased, G3/4 (Regimen 2A (n = 20)): 4 (20.0) n(%) | Thrombocytopenia/platelet count decreased, All Grades (Regimen 2A (n = 20)): 10 (50.0) n(%) | Thrombocytopenia/platelet count decreased, G3/4 (Regimen 2A (n = 20)): 7 (35.0) n(%) | Anemia, All Grades (Regimen 2C (n = 19)): 4 (21.1) n(%) | Anemia, G3/4 (Regimen 2C (n = 19)): 3 (15.8) n(%) | Leukopenia/white blood cell count decreased, All Grades (Regimen 2C (n = 19)): 2 (10.5) n(%) | Leukopenia/white blood cell count decreased, G3/4 (Regimen 2C (n = 19)): 1 (5.3) n(%) | Neutropenia/neutrophil count decreased, All Grades (Regimen 2C (n = 19)): 3 (15.8) n(%) | Neutropenia/neutrophil count decreased, G3/4 (Regimen 2C (n = 19)): 2 (10.5) n(%) | Thrombocytopenia/platelet count decreased, All Grades (Regimen 2C (n = 19)): 8 (42.1) n(%) | Thrombocytopenia/platelet count decreased, G3/4 (Regimen 2C (n = 19)): 3 (15.8) n(%) | nausea, all grade, patients (all 4 regimens, 44/85): 52% | Grade 3/4 hematological toxicities suspected to be study-drug related, patients (all treatment regimens): ≤ 35% | overall incidence of grade 3/4 thrombocytopenia compared across the 4 regimens (regimen 1B): lowest | dose interruptions or discontinuations due to thrombocytopenia (regimen 1B 120 mg): no dose interruptions or discontinuations | grade 3/4 neutropenia (regimen 1B 120 mg): 2 out of 9 | non-hematologic dose limiting toxicities or grade 3/4 AEs (regimen 1B 120 mg): no non-hematologic dose limiting toxicities or grade 3/4 AEs | platelet transfusions required (regimen 1B 120 mg): no patients required platelet transfusions | time to first occurrence of G4 thrombocytopenia (regimen 1B 150 mg): > 100 days | therapeutic index among the 4 dosing regimens (regimen 1B (d1 and d8 of 4 w cycle)): most favorable therapeutic index | lipase increase, CTCAE grade 3/4, patients (regimen 1B, 20 patients): 15% | nausea, all grades, patients (regimen 1B, 20 patients): 60.0% | neutropenia/neutrophil count decreased, CTCAE grade 3/4, patients (regimen 1B, 20 patients): 30.0% | neutropenia/neutrophil count decreased, all grades, patients (regimen 1B, 20 patients): 40.0% | patients with at least one CTCAE grade 3/4 AE suspected to be treatment-related (regimen 1B, 20 patients): 45.0% | thrombocytopenia/platelet count decrease, CTCAE grade 3/4, patients (regimen 1B, 20 patients): 10.0% | thrombocytopenia/platelet count decreased, all grades, patients (regimen 1B, 20 patients): 45.0% | vomiting, all grades, patients (regimen 1B, 20 patients): 25.0%
